Experimental data reported in patent publication US20140336184A1, “METHOD TO ENHANCE COGNITION” (priority 2011, published 2014).

Key:
adult WT mice = experiment: Video EEG recordings in freely moving mice; type: in vivo, mouse
Text: Pkr knockout (Pkr^−/−) mice (Abraham et al., 1999) were back-crossed for at least eight generations to 129SvEv mice. Mice were weaned at the third postnatal week and genotyped by PCR. Briefly, the mutant and corresponding WT alleles are detected by a four-primer PCR assay in which Oligo-1 (5′-GGAACITrGGAGCAATGGA-3′) and Oligo-2 (5′-[…]-3′) give a WT band of 225 base-pair fragment and Oligo-3 (5′-TGTTCTGTGGCTATCAGGG-3′) and Oligo-4 (5′-[…]-3′) give a 432 base-pair fragment from the deleted allele. eIF2α^+/S51A mice were previously described (Costa-Mattioli et al., 2007; Scheuner et al., 2001). All experiments were performed on 8-16 weeks old males. The mice were kept on a 12 h light/dark cycle, and the behavioral experiments were always conducted during the light phase of the cycle. The mice had access to food and water ad libitum, except during tests. […]
PKRi (Calbiochem, San Diego), a potent ATP-binding-site-directed inhibitor of PKR which blocks PKR autophosphorylation (Jammi et al., 2003; Shimazawa and Hara, 2006), was prepared as a 20 mM stock solution in DMSO (dimethyl sufloxide). PKRi was freshly dissolved in saline and then injected intraperitoneally (i.p.) at a dose of 0.1 mg/kg and the EEG was recorded 1 hr after injection. A digital video camera simultaneously monitored behavior during the EEG recordings. […]

[1] = system: hippocampal slices from WT mice; experiment: Field recording (population spikes, fEPSPs) in CA1 of hippocampal slices; type: cell-based, mouse
Procedure: Field recording: horizontal hippocampal slices ([…]) were cut from brains of WT or age-matched Pkr^−/− littermates in 4° C. artificial cerebrospinal fluid (ACSF) and kept in ACSF at room temperature for at least one hr before recording, as described (Zhu et al., 2005). Slices were maintained in an interface-type chamber perfused with oxygenated ACSF (95% O2 and 5% CO2) containing in mM: 124 NaCl, 2.0 KCl, 1.3 MgSO4, 2.5 CaCl2, 1.2 KH2PO4, 25 NaHCO3, and 10 glucose (2-3 ml/min). Bipolar stimulating electrodes were placed in the CA1 stratum radiatum to stimulate Schaffer collateral and commissural fibers. Field potentials were recorded using ACSF-filled micropipettes at 28-29° C. The recording electrodes were placed in the stratum radiatum for field excitatory postsynaptic potentials (fEPSPs), and stratum pyramidale for population spikes. The stimulus strength of the 0.1 ms pulses was adjusted to evoke 30-35% of maximum response for fEPSPs, and 50% of maximal response for population spikes. A stable baseline of responses was established for at least 30 min at 0.033 Hz. Tetanic LTP was induced by high-frequency stimulation in brief trains (100 Hz, 1 s), applied either as a single train or four trains separated by 5 min intervals. A short train consisted of 5 stimuli (100 Hz within-burst). When indicated, ACSF was supplemented with anisomycin (Calbiochem, Calif.), PKRi (Calbiochem, Calif.), bicuculline (Tocris) or diazepam (Sigma-Aldrich). It should be noted that the inventors used bicuculline free base which only blocks GABAA receptor rather than bicuculline-M (bicuculline methiodide, methobromide or methochloride) which in addition to GABAA receptor also blocks small conductance (SK) calcium-activated potassium channels (Debarbieux et al., 1998). […] To reduce day-to-day variations, whenever possible simultaneous recordings (in the same chamber) were obtained from slices from Pkr^−/− mice and WT littermates treated with drugs or vehicle. Statistical analysis was performed using t-test and two-way ANOVA. All data are presented as means±SEM and “n” indicates the number of slices.

[2] = system: hippocampal slices from Pkr−/− mice; experiment: Field recording (population spikes) in CA1 of hippocampal slices; type: cell-based, mouse; conditions: PKRi
Procedure: Field recording: horizontal hippocampal slices ([…]) were cut from brains of WT or age-matched Pkr^−/− littermates in 4° C. artificial cerebrospinal fluid (ACSF) and kept in ACSF at room temperature for at least one hr before recording, as described (Zhu et al., 2005). Slices were maintained in an interface-type chamber perfused with oxygenated ACSF (95% O2 and 5% CO2) containing in mM: 124 NaCl, 2.0 KCl, 1.3 MgSO4, 2.5 CaCl2, 1.2 KH2PO4, 25 NaHCO3, and 10 glucose (2-3 ml/min). Bipolar stimulating electrodes were placed in the CA1 stratum radiatum to stimulate Schaffer collateral and commissural fibers. Field potentials were recorded using ACSF-filled micropipettes at 28-29° C. The recording electrodes were placed in the stratum radiatum for field excitatory postsynaptic potentials (fEPSPs), and stratum pyramidale for population spikes. The stimulus strength of the 0.1 ms pulses was adjusted to evoke 30-35% of maximum response for fEPSPs, and 50% of maximal response for population spikes. A stable baseline of responses was established for at least 30 min at 0.033 Hz. Tetanic LTP was induced by high-frequency stimulation in brief trains (100 Hz, 1 s), applied either as a single train or four trains separated by 5 min intervals. A short train consisted of 5 stimuli (100 Hz within-burst). […]

[3] = system: CA1 neurons in WT hippocampal slices; type: cell-based, mouse
[4] = system: CA1 neurons in Pkr−/− hippocampal slices; experiment: Whole-cell patch clamp recording of synaptic currents; type: cell-based, mouse; conditions: PKRi
WT hippocampal slices = experiment: Tetanic LTP (E-LTP/L-LTP) in hippocampal slices; type: cell-based, mouse
Procedure: (§1) Field recording: horizontal hippocampal slices ([…]) were cut from brains of WT or age-matched Pkr^−/− littermates in 4° C. artificial cerebrospinal fluid (ACSF) and kept in ACSF at room temperature for at least one hr before recording, as described (Zhu et al., 2005). Slices were maintained in an interface-type chamber perfused with oxygenated ACSF (95% O2 and 5% CO2) containing in mM: 124 NaCl, 2.0 KCl, 1.3 MgSO4, 2.5 CaCl2, 1.2 KH2PO4, 25 NaHCO3, and 10 glucose (2-3 ml/min). Bipolar stimulating electrodes were placed in the CA1 stratum radiatum to stimulate Schaffer collateral and commissural fibers. Field potentials were recorded using ACSF-filled micropipettes at 28-29° C. The recording electrodes were placed in the stratum radiatum for field excitatory postsynaptic potentials (fEPSPs), and stratum pyramidale for population spikes. The stimulus strength of the 0.1 ms pulses was adjusted to evoke 30-35% of maximum response for fEPSPs, and 50% of maximal response for population spikes. A stable baseline of responses was established for at least 30 min at 0.033 Hz. Tetanic LTP was induced by high-frequency stimulation in brief trains (100 Hz, 1 s), applied either as a single train or four trains separated by 5 min intervals. A short train consisted of 5 stimuli (100 Hz within-burst). When indicated, ACSF was supplemented with anisomycin (Calbiochem, Calif.), PKRi (Calbiochem, Calif.), bicuculline (Tocris) or diazepam (Sigma-Aldrich). It should be noted that the inventors used bicuculline free base which only blocks GABAA receptor rather than bicuculline-M (bicuculline methiodide, methobromide or methochloride) which in addition to GABAA receptor also blocks small conductance (SK) calcium-activated potassium channels (Debarbieux et al., 1998). […] To reduce day-to-day variations, whenever possible simultaneous recordings (in the same chamber) were obtained from slices from Pkr^−/− mice and WT littermates treated with drugs or vehicle. Statistical analysis was performed using t-test and two-way ANOVA. […]

[5] = system: Pkr−/− hippocampal slices; type: cell-based, mouse
Procedure: as §1

WT mice = experiment: Contextual and auditory fear conditioning; type: in vivo, mouse; conditions: PKRi 0.1 mg/kg i.p. immediately after training, n=8
Procedure: The experimenter was blind to the genotype for all behavioral tests. Fear conditioning was performed as previously described (Costa-Mattioli et al., 2007). Mice were first handled for 3-5 min for 3 days and then habituated to the conditioning chamber for 20 min for another 3 days. On the training day, after 2 min in the conditioning chamber, mice received a pairing of a tone (2800 Hz, 85 db, 30 s) with a co-terminating foot-shock (0.35 mA, 1 s), after which they remained in the chamber for two additional min and then were returned to their home cages. Mice were tested 24 hr after training for “freezing” (immobility with the exception of respiration) in response to the tone (in a chamber to which they had not been conditioned) and to the training context (training chamber).
During testing for auditory fear conditioning, mice were placed in the chamber and freezing responses were recorded during the initial 2 min (pre-CS period) and during the last 3 min when the tone was played. Mice were returned to their cages 30 s after the end of the tone. […] For extinction trials, freezing in response to the conditioned context was assessed for 5 min, 24 hr, 48 hr, 72 hr and 96 hr after training and normalized to the amount of freezing obtained at 24 hr. For all tests, freezing behavior was determined at 5 s intervals during a 5 min period. […]

PKR [6] = target: T1, PKR (Homo sapiens, UniProt P19525); conditions: Jammi et al., 2003; Shimazawa and Hara, 2006; cited from earlier work
PKR [7] = target: T1, PKR; conditions: final concentration of 1 μM (Page et al., 2006; Wang et al., 2007); cited from earlier work
PKR [8] = target: T2, PKR (Rattus norvegicus, UniProt Q63184); conditions: dose of 0.1 mg/kg i.p. (Ingrand et al., 2007); cited from earlier work
T2 sequence (Q63184 1-513): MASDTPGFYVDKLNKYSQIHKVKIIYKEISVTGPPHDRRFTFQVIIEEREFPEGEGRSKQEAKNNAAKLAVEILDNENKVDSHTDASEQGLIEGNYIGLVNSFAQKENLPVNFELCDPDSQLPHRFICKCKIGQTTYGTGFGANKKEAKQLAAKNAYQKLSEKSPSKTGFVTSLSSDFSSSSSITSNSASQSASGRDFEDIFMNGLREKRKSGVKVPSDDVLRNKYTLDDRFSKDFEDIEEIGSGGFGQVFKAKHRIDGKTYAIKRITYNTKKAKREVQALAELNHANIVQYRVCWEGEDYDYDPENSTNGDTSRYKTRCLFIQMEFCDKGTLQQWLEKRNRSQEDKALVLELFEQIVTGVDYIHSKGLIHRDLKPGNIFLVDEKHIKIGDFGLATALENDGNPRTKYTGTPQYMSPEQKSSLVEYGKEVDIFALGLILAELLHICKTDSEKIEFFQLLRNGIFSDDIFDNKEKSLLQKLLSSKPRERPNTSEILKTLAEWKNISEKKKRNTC

[9] = PKRi 1 μM, −60 mV, kynurenic acid
[10] = PKRi 1 μM, −60 mV, kynurenic acid 2 mM, TTX 1 μM

T1 sequence (P19525 whole entry): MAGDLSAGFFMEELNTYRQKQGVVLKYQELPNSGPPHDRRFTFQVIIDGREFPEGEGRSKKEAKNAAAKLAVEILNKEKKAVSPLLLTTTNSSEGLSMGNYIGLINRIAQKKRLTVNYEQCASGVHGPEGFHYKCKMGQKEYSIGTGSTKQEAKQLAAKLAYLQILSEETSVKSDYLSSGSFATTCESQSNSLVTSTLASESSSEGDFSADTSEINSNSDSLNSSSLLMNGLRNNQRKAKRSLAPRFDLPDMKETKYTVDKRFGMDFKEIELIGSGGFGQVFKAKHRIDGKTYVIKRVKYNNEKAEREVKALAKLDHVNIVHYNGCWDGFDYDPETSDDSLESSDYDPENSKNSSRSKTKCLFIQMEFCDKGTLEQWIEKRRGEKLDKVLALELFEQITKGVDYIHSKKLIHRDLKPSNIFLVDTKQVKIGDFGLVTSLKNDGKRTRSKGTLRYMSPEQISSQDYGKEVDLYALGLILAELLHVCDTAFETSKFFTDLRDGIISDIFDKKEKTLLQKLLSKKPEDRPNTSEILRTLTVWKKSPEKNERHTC

Compound: O=C1Nc2ccc3ncsc3c2/C1=C/c1cnc[nH]1 [PKRi]
- Abnormal EEG activity present (mice affected) (adult WT mice; PKRi 0.1 mg/kg i.p., recorded one hour after injection, absent in all WT controls (n=6), p<0.01): 6 out of 7
- Cortical EEG activity (adult WT mice; PKRi 0.1 mg/kg, adult WT mice): induces acute spiking (d) and rhythmic bursts (e)
- Decrease of CA1 population spike amplitude during short high frequency train (cumulative inhibition) ([1]; 5 pulses at 100 Hz): minimal or no high-frequency stimulation-induced decrease in spike amplitude
- Duration of burst ([1]; PKRi 1 μM, bicuculline 2 μM): increased
- Number of evoked spikes ([1]; PKRi 1 μM, bicuculline 2 μM): increased
- After-discharges after a single stimulus ([1]; PKRi 1 μM, in presence of bicuculline 2 μM, half-maximal stimulation at 0.03 Hz): pronounced after-discharges
- Initial slope of EPSPs ([1]; PKRi 1 μM, single stimulus): did not alter
- Presynaptic afferent volley ([1]; PKRi 1 μM, single stimulus): did not alter
- Amplitude of population spikes ([1]; PKRi 1 μM, single stimulus, WT slices): enhanced
- Population spikes (firing) in slices pre-treated with bicuculline ([1]; WT slices pre-treated with the GABAA antagonist bicuculline): no further enhancement of firing
- Population spikes [2]: no effect
- Evoked EPSCs ([3]; PKRi 1 μM bath application, picrotoxin 100 μM, −70 mV): no effect
- Amplitude of sIPSCs [3, 9]: not amplitude
- Frequency of sIPSCs [3, 9]: decreases
- Amplitude of mIPSCs [3, 10]: but not their amplitude
- Frequency of mIPSCs [3, 10]: decreased
- Amplitude of pharmacologically isolated monosynaptic eIPSCs ([3]; PKRi bath-application, 50 μM APV, 10 μM CNQX, 10 μM CGP55845, 0 mV, half-maximal stimulation): reduced
- Electrically isolated eIPSCs ([3]; PKRi, holding potential 0 mV, half-maximal stimulation): Reduced
- Amplitude or frequency of sEPSCs, mEPSCs or eEPSCs ([3]; WT slices treated with PKRi): not significantly changed
- mIPSCs Rise Time 10%-90% ([3]; WT slices treated with PKRi): 1.36 ± 0.07 ms
- mIPSCs τW ([3]; WT slices treated with PKRi): 21.28 ± 1.24 ms
- sIPSCs Rise Time 10%-90% ([3]; WT slices treated with PKRi): 1.68 ± 0.18 ms
- sIPSCs τW ([3]; WT slices treated with PKRi): 22.89 ± 0.78 ms
- Paired-pulse depression of IPSCs (IPSC2/IPSC1) ([3]; at 50 ms inter-stimulus interval): reduced
- Amplitude of evoked IPSCs [4]: did not alter
- LTP after a single high frequency train (100 Hz for 1 s) (WT hippocampal slices; PKRi 1 μM, WT slices, at 220 min p<0.001): converts E-LTP into L-LTP
- LTP elicited by a single 100 Hz train (1 s) ([5]; PKRi, Pkr−/− slices): did not further potentiate LTP
- Auditory fear memory (freezing 24 hr after training) (WT mice): enhanced
- Contextual fear memory (freezing 24 hr after training) (WT mice): enhanced
- PKR autophosphorylation (PKR [6]): blocks
- PKR activity ex-vivo (PKR [7]): known to block PKR activity ex-vivo
- PKR activity in the hippocampus in vivo (PKR [8]): known to block PKR activity in the hippocampus in vivo

Compound: COc1ccc(C[C@H]2NC[C@H](O)[C@H]2OC(C)=O)cc1 [anisomycin]
- Facilitated L-LTP after a single train ([5]; anisomycin, Pkr−/− slices, at 220 min p<0.01): suppressed

Compound: CN1C(=O)CN=C(c2ccccc2)c2cc(Cl)ccc21 [diazepam]
- L-LTP induction by four trains at 100 Hz (WT hippocampal slices): blocked L-LTP induction
- L-LTP induced by four tetanic trains (WT hippocampal slices; low concentration of diazepam (11 μM), WT slices): no effect
- L-LTP after a single train [5]: prevented the induction of L-LTP
